Test results as given in US20250179028A1, “ACRYLAMIDE COMPOUNDS” (NRG THERAPEUTICS LTD, priority 2022, published 2025).
≈ marks a conversion by molar mass, not a printed value. Where two headings read alike, the source gives them in different places.

Key:
[1] = PBS and FaSSIF solubility; format: physicochemical; details: kinetic from dmso stock
Outline: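 Solubility was measured from 10 mM DMSO stocks diluted into FaSSIF or PBS pH 7.4, in duplicate, then shaken at 1100 rpm for 2 hr at 25 °C. Filtrates were quantified by LC-MS/MS against an internal standard and a known-concentration standard.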

CYP2D6 = CYP2D6 (Homo sapiens (Human), UniProt P10635); experiment: Cytochrome P450 CYP2D6 inhibition in human liver microsomes; format: in vitro ADME; details: probe dextromethorphan 2 µM (dextrorphan formation); 1 uM test compound, human liver microsomes; average value from two experiments; negative values = no effective inhibition
Outline: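 Human liver microsomes (0.2 mg/mL) with 2 μM dextromethorphan in 100 mM PBS, test compound at 1 μM or 0.1-30 μM, 15 min preincubation then NADPH-started reaction for 20 min at 37° C, in duplicate. Dextrorphan formation by UPLC-MS/MS; IC50 from % decrease versus uninhibited control.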

mPTP [2] = experiment: mPTP activity (Ca2+ retention) assay in isolated rat liver mitochondria; format: biochemical; details: for mPTP Rat liver pIC50: isolated rat liver mitochondria, average value from multiple experiments (n ≥ 2)
Outline: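 Freshly isolated female Sprague Dawley rat liver mitochondria were energised with succinate and rotenone in pH 7.4 buffer with Fluo5N, then pre-incubated 10 min at RT with compound (30 μM to 1 nM final) before a 75 μM CaCl2 bolus. The IC50 used 10-min fluorescence, normalised to DMSO and 5 μM cyclosporin A.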

[3] = Microsomal clearance assay; format: in vitro ADME; details: rat liver microsomes; average value from two experiments
Protocol: The microsomal stability of test compounds was evaluated using rat liver microsomes (BiolVT) with and without the cofactors nicotinamide adenine dinucleotide phosphate (NADPH) and undine-diphosphate-glucuronic acid (UDPGA). Reactions were performed in a final volume of 250 μl pre-warmed (37° C.) 100 mM phosphate buffer containing 5 mM MgCl2, 0.025 mg/ml alamethicin, and 0.5 mg/ml rat liver microsomes. NADPH and UDPGA were included at 1 mM and 2 mM respectively, where appropriate. Reactions were started with the addition of 1 μM (final concentration) test compound. Verapamil was used as the positive control. Solutions were incubated in a water bath at 37° C. and aliquots collected at 0.5, 5, 15, 30 and 60 min. Reactions were stopped by the addition of 5 volumes of cold acetonitrile with internal standards (200 nM caffeine and 100 nM tolbutamide). Samples were centrifuged at 3220 g for 40 min. An aliquot of supernatant was diluted 1:1 In ultra-pure H2O, then used for LC-MS/MS analysis. Peak areas were determined from extracted ion chromatograms. The slope value, k, was determined by linear regression of the natural logarithm of the remaining percentage of the parent drug vs. incubation time curve. The in vitro half-life (in vitro t½) was determined from the slope value: in vitro t½=0.693/k. Conversion of the in vitro t½ (min) into the in vitro intrinsic clearance (in vitro CLint, in μL/min/mg protein) was done using the following equation (mean of duplicate determinations): […]

[4] = Hepatocyte clearance assay, human; format: in vitro ADME; details: cryopreserved primary human hepatocytes, average value from two experiments, read-out: Human heps Clint
Protocol: In vitro clearance studies were performed in primary rat and human hepatocytes (BiolVT). Vials of cryopreserved rat or human hepatocytes were thawed in a 37° C. water bath for 2 min. Cells were transferred into thawing medium (Williams' Medium E containing 30% Percoll, 1×GlutaMAX-1, 15 mM HEPES, 5% fetal bovine serum (FBS), 4 μg/ml insulin, 1 μM dexamethasone), centrifuged at 100 g for 10 min then resuspended in culture medium (Leibovitz's L-15 Medium) at a concentration of 0.5×10^6 viable cells/mL (number of viable cells assessed using AO/PI staining). Hepatocytes (198 μL) were transferred into wells of a 96-well non-coated plate and placed in a 37° C. incubator for 10 min. Test compound solutions were prepared from 10 mM stocks in DMSO, diluted to 100 μM in 50% (v/v in water) acetonitrile. Test compound samples (2 μl) were added to each well of hepatocytes and incubated at 37° C. Samples (25 μl) were collected at t=0, 15, 30, […] and 120 min, mixed with 6 volumes (150 μl) of acetonitrile containing internal standard (100 nM alprazolam, 200 nM caffeine and 100 nM tolbutamide), vortexed for 5 min and centrifuged for 45 min at 3220 g. An aliquot of supernatant (100 μL) was diluted with 100 μL ultra-pure water, and the mixture was used for LC/MS/MS analysis. All incubations were performed in duplicate. Peak areas were determined from extracted ion chromatograms. The slope value, k, was determined by linear regression of the natural logarithm of the remaining percentage of the parent drug vs. incubation time curve. The in vitro half-life (in vitro t½) was determined from the slope value: in vitro t½=0.693/k. Conversion of the in vitro t½ (in min) into the in vitro intrinsic clearance (in vitro CLint, in μL/min/1×10^6 cells) was done using the following equation (mean of duplicate determinations):
[formula] • V=incubation volume (0.2 mL) • N=number of hepatocytes per well (0.1×10^6 cells).

[5] = Hepatocyte clearance assay, rat; format: in vitro ADME; details: cryopreserved primary rat hepatocytes, average value from two experiments, read-out: Rat heps Clint
Outline: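 Cryopreserved rat or human hepatocytes, 0.5×10^6 viable cells/mL in L-15 medium, incubated with compound at 37 °C; samples to 120 min, duplicate. Parent loss by LC/MS/MS; t½ = 0.693/k from ln-linear regression, converted to CLint in μL/min/1×10^6 cells.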

mPTP [6] = experiment: mPTP activity assay in isolated rat brain mitochondria; format: biochemical; details: for mPTP Rat brain pIC50: isolated rat brain mitochondria
Protocol: mPTP activity was measured in brain mitochondria freshly isolated from female Sprague Dawley (250 to 300 gram) rats. Anaesthetised rats were perfused in-situ with ˜40 ml cold Dulbecco's Phosphate Buffered Saline (DPBS), then brains dissected and transferred into 30 ml Isolation Buffer (225 mM mannitol, 75 mM sucrose, 1 mM EGTA, adjusted to pH 7.4 with 1 M NaOH). The brain was minced using tweezers and a scalpel into ˜5 mm pieces then transferred into a 50 ml Potterton Dounce homogenization tube on ice containing 10 ml ice-cold isolation buffer (as above with addition of Complete Protease inhibitor; 1 tablet per 50 ml buffer).
Homogenisation was carried out using a […] pestle at 1800 rpm. The slurry was centrifuged at 2000 g for 10 min at 4° C., then the supernatant centrifuged at 12,000 g for 9 min. The pellet was resuspended with a dounce homogeniser in isolation buffer as above but with the addition of 0.02% digitonin, centrifuged at 12,000 g for 11 min and finally resuspended in 5 ml modified isolation buffer (as above but with EGTA reduced to 0.1 mM).
Test compounds were prepared in 384 well polypropylene assay plates as described above for the liver mitochondria assay. A stock mitochondria/Fluo5N assay solution was prepared in 5.6 ml assay buffer (120 mM mannitol, 40 mM MOPS, 5 mM KH2PO4, 60 mM KCl, 10 mM pyruvate, 2 mM malate, 2 mM MgCl2, 20 μM ADP, 1.26 μM oligomycin A, adjusted to pH 7.4) supplemented with Fluo5N pentapotassium salt (2 μM) and 1 ml mitochondria suspension, then transferred (15 μl) into the assay plate containing test compounds and incubated for 10 min at RT. Assay plates were then transferred to a FLIPR Tetra plate reader (Molecular Devices). Dye fluorescence was then measured every 3 sec for a total of 10 min. After 12 sec, a 2.5 μl bolus of Ca2+ (75 μM) was added from a source plate containing 675 μM CaCl2) in FLIPR assay buffer. IC50 values for test compounds were calculated using the fluorescence value collected at the 10 min timepoint with % inhibition calculated using the DMSO control and cyclosporin A values at […].

[7] = aqueous buffer, PBS pH 7.4, 2 hr at 25° C., read-out: Solubility PBS (pH 7.4)
[8] = fasted state simulated intestinal fluid (FaSSIF), fassif, Fasted state simulated intestinal fluid, 2 hr at 25° C., read-out: Solubility FaSSIF

CYP2D6, sequence (P10635 whole entry): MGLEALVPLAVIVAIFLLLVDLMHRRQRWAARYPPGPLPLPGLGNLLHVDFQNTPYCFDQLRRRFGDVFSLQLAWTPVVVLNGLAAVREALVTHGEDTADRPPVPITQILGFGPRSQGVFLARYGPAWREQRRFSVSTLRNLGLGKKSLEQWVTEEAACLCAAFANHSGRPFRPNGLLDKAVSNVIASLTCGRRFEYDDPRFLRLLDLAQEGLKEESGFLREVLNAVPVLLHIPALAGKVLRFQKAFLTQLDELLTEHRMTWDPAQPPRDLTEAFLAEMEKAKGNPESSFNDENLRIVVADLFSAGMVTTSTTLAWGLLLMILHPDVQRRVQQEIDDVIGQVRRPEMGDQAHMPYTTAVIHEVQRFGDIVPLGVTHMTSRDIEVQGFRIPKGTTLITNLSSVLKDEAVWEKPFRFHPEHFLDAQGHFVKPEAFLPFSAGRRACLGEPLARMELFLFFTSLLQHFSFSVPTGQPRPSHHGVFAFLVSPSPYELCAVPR

solubility at 2 h [1, 7]	inhibition at 20 min, 1 µM (CYP2D6)	mPTP Rat liver pIC50 (mPTP [2])	microsomal CLint at 1 µM [3]	solubility at 2 h [1, 8]	hepatocyte CLint at 1 µM [4]	hepatocyte CLint at 1 µM [5]	mPTP Rat brain pIC50 (mPTP [6])	Structure (SMILES)	activity in the rat liver mitochondria assay (in words) (mPTP [2])	activity in the rat brain mitochondria assay (in words) (mPTP [6])
22.2 µM (≈ 6.58 µg/mL)	-2.11%	7.3	106 µL/min/mg	–	–	–	–	Cc1c(F)cccc1NC(=O)/C=C/c1ccc2nn[nH]c2c1 [Example 1, (E)-3-(1H-benzo[d][1,2,3]triazol-6-yl)-N-(3-fluoro-2-methylphenyl)acrylamide]	–	–
1.11 µM (≈ 0.364 µg/mL)	1.2%	6.0	23 µL/min/mg	–	–	–	–	Cc1c(F)cccc1NC(=O)/C=C/c1cc(F)c2c(c1)NC(=O)C2 [Example 18, (E)-N-(3-fluoro-2-methylphenyl)-3-(4-fluoro-2-oxoindolin-6-yl)acrylamide]	–	–
–	–	7.6	–	14 µM (≈ 5.25 µg/mL)	6 µL/min/1e6 cells	13 µL/min/1e6 cells	7.8	COc1cc(C)c(NC(=O)/C=C/c2cc3[nH]nc(Cl)c3cc2F)c(C)n1 [Example 96, (2E)-3-(3-chloro-5-fluoro-1H-indazol-6-yl)-N-(6-methoxy-2,4-dimethylpyridin-3-yl)prop-2-enamide]	–	–
–	–	7.6	–	76 µM (≈ 26.9 µg/mL)	3 µL/min/1e6 cells	5 µL/min/1e6 cells	7.9	COc1cc(C)c(NC(=O)/C=C/c2cc3[nH]nc(C)c3cc2F)c(C)n1 [Example 95, (2E)-3-(5-fluoro-3-methyl-1H-indazol-6-yl)-N-(6-methoxy-2,4-dimethylpyridin-3-yl)prop-2-enamide]	–	–
–	–	7.9	–	–	11 µL/min/1e6 cells	48.1 µL/min/1e6 cells	8.3	Cc1c(F)cccc1NC(=O)/C=C/c1ccc2c(C#N)n[nH]c2c1 [Example 51, (E)-3-(3-cyano-1H-indazol-6-yl)-N-(3-fluoro-2-methylphenyl)acrylamide]	highest activity	highest activity
–	–	7.7	–	8 µM (≈ 2.59 µg/mL)	3 µL/min/1e6 cells	3 µL/min/1e6 cells	7.4	Cc1ncc(F)c(C)c1NC(=O)/C=C/c1ccc2c(C)n[nH]c2c1 [Example 113, (2E)-N-(5-fluoro-2,4-dimethylpyridin-3-yl)-3-(3-methyl-1H-indazol-6-yl)prop-2-enamide]	–	–

Structure (SMILES)	solubility at 2 h [1, 7]	inhibition at 20 min, 1 µM (CYP2D6)	mPTP Rat liver pIC50 (mPTP [2])	microsomal CLint at 1 µM [3]	solubility at 2 h [1, 8]	hepatocyte CLint at 1 µM [4]	hepatocyte CLint at 1 µM [5]	mPTP Rat brain pIC50 (mPTP [6])	activity in the rat liver mitochondria assay (in words) (mPTP [2])	activity in the rat brain mitochondria assay (in words) (mPTP [6])
CCO[C@H]1Cc2ccccc2[C@@H]1NC(=O)/C=C/c1ccc2c(C)n[nH]c2c1 [Example 69, (E)-N-((1S,2S)-2-ethoxy-2,3-dihydro-1H-inden-1-yl)-3-(3-methyl-1H-indazol-6-yl)acrylamide]	–	–	7.7	–	181 µM (≈ 65.3 µg/mL)	17.9 µL/min/1e6 cells	73 µL/min/1e6 cells	7.6	–	–
Cc1n[nH]c2cc(/C=C/C(=O)N[C@H]3c4ccccc4C[C@@H]3OCCF)ccc12 [Example 68, (E)-N-((1S,2S)-2-(2-fluoroethoxy)-2,3-dihydro-1H-inden-1-yl)-3-(3-methyl-1H-indazol-6-yl)acrylamide]	–	–	7.8	–	61.7 µM (≈ 23.4 µg/mL)	12 µL/min/1e6 cells	34.9 µL/min/1e6 cells	7.7	–	–
Cc1n[nH]c2cc(/C=C/C(=O)N[C@H]3c4ccccc4C[C@@H]3OCC3CC3)ccc12 [Example 67, (E)-N-((1S,2S)-2-(cyclopropylmethoxy)-2,3-dihydro-1H-inden-1-yl)-3-(3-methyl-1H-indazol-6-yl)acrylamide]	–	–	7.2	–	–	42.1 µL/min/1e6 cells	73.3 µL/min/1e6 cells	7.3	–	–
CC1Cc2ccccc2C1NC(=O)/C=C/c1ccc2c(c1)NC(=O)C2 (centres unmarked) [Example 21, (E)-N-(2-methyl-2,3-dihydro-1H-inden-1-yl)-3-(2-oxoindolin-6-yl)acrylamide]	26 µM (≈ 8.64 µg/mL)	0.91%	6.1	38 µL/min/mg	–	–	–	–	–	–
